Reference: patent US20250381165A1, “Method of Use for Benzofuran Compounds” (Tampa Bay Research Institute, Inc., priority 2024, published 2025)
Like-named read-outs stand apart in the source and are kept apart here.

Assays:
Assay type in all cases: cell-based, murine
[1] = test system: DC2.4 cells (B3Z activation); assay: Pathway inhibitor studies in DC2.4/B3Z assay
Procedure: […]. The cytotoxicity of all inhibitors was assessed using CellTiter96 Aqueous One (Promega (Madison WI, USA); cat. no. G3580).
. The cells were then washed 2× before addition of BzFβ. Cells exposed to the other inhibitors were incubated with an appropriate concentration of each inhibitor, seen in Table 1 in cDMEM at 37° C., 5% CO2. […]. Cells were then incubated for 6 h. Before B3Z addition the inhibitor and BzFβ were removed, and the cells washed with warm DPBS. If testing peptide presentation, the DC2.4 cells were pulsed with 0.5 nM […] for 1 h prior to being cocultured with B3Z.

[2] = target: T1, MHCI/SIINFEKL complex on DC2.4 (Mus musculus, UniProt P01901); assay: Displacement of SIINFEKL from DC2.4 after peptide pulse
T1 construct: DC2.4 are a C57Bl/6 lineage murine cell line and as such they express MHC class I H-2Kb and H-2Db; endogenous in cells; host or cells: DC2.4 (murine dendritic cell line, from Dr. Kenneth Rock)
T1 sequence (P01901 22-369): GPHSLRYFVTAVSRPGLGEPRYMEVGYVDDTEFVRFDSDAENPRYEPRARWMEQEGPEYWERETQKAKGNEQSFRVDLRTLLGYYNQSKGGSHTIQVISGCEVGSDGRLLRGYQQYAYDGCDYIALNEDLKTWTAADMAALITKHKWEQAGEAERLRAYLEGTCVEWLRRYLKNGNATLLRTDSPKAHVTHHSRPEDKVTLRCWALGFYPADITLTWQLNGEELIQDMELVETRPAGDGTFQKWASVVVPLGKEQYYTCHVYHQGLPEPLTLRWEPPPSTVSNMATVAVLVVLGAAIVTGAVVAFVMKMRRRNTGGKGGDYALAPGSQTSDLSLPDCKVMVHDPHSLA
T1 sequence (P01887 21-119 partner): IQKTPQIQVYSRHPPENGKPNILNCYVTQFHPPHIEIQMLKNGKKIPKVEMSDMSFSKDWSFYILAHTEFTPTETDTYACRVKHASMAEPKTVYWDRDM

[3] = target: T2, H-2Kb/SIINFEKL complex on DC2.4 (Mus musculus, UniProt P01901); assay: BFA decay experiment (SIINFEKL off-rate) on DC2.4; conditions: 24 h pre-treatment, 1 h 30 nM SIINFEKL
T2 construct: DC2.4 are a C57Bl/6 lineage murine cell line and as such they express MHC class I H-2Kb and H-2Db; endogenous in cells; host or cells: DC2.4 (murine dendritic cell line, from Dr. Kenneth Rock)

[4] = test system: MHC class I H-2Kb on DC2.4; assay: MHC class I recovery after acid stripping of DC2.4; conditions: 25 μg/mL BzFβ or 5 mM GL during recovery, 4-24 h
Procedure: To determine if BzFβ affects synthesis or cycling of the MHC class I molecules, the class I molecule/peptide complexes were stripped from the surface of DC2.4 cells using a citric acid buffer, then treated with 25 μg/mL BzFβ, 5 mM of the dipeptide GL, or 3 μg/mL BFA (see Example 4) as a negative control.
An acid wash to strip the cell surface of MHC class I was performed as described with modifications. (Montealegre, et al., Dissociation of β2-microglobulin determines the surface quality control of major histocompatibility complex class I molecules. FASEB. 2015 July; 29(7):2780-8). DC2.4 were incubated overnight at 37° C. at 1×10^5. Cells were washed for 2 min in acidic buffer [(pH 2.5) 465 mM Citric acid, 35 mM sodium citrate, in PBS with 1% v/v FBS] or neutral buffer [(pH 7.4) PBS with 1% v/v FBS]. Afterwards the pH was neutralized by the addition of cDMEM. The cells were washed with PBS and treated with BzFβ or GL in cDMEM for various times to allow for MHC class I recovery at 37° C. Cells were washed and stained with an H-2Kb-specific antibody (Invitrogen, cat. no. 12-5958-82) and analyzed by flow cytometry as described previously
MHC I recovery on the cell surface at various time points was detected by flow cytometry using the PE-labeled MHC class I H-2Kb specific antibody (AF6-88.5.5.3). […] At 6 hours >60% of the MHC class I molecules recovered, seen in FIG. 14.

[5] = test system: B16F10 cells (B3Z activation); assay: B3Z activation by B16F10 (OVA or SIINFEKL)
Procedure: B16F10 were plated at a density of 2.5 or 5×10^4 cells/well (100 μL/well in 96 well plates) and cultured overnight in cDMEM. The cells were washed with DPBS and then treated for 1-24 h with the indicated concentrations of BzFβ or co-treated with the indicated concentrations of BzFβ and 1.0 mg/mL OVA, suspended in complete media. Cells treated with BzFβ only were pulsed with 2 nM SIINFEKL pulsed for 1 h. The cells were then co-cultured with equal number of B3Z cells at 37° C. for 19 h.
In this experiment the activity of the dipeptide, GL, was also examined, as it has been previously reported to function as a peptide exchange factor. (Saini, et al., Dipeptides catalyze rapid peptide exchange on MHC class I molecules. Proc Natl Acad Sci USA. 2015 Jan. 6; 112(1):202-7; Saini, et al., Empty peptide-receptive MHC class I molecules for efficient detection of antigen-specific T cells. Sci Immunol. 2019 Jul. 19; 4(37):eaau9039). B16F10 were plated at a density of 2.5 or 5×10^4 cells/well (100 μL/well in 96 well plates) and cultured overnight in cDMEM. The cells were washed with DPBS and then co-treated for 24 h with 10 mM (1.88 mg/mL) of GL and 1.0 mg/mL OVA or were pulsed with 2 nM SIINFEKL for 1 h following treatment with 10 mM GL in complete media. The cells were then co-cultured with an equal number of B3Z cells at 37° C. for 19 h.

[6] = test system: DC2.4 cells presenting SIINFEKL to B3Z CD8+ T cell hybridoma; assay: B3Z activation by SIINFEKL-pulsed DC2.4 (CPRG β-gal assay); conditions: doses up to 50 μg/mL (265 μM), 0.5 nM SIINFEKL
Procedure: DC2.4 cells (2.5×10^4 cells/well) were seeded at 100 μL/well in 96 well tissue culture white sided/white bottom plate and incubated overnight to allow for cell adherence. 37° C. in an atmosphere containing 5% CO2 and 95% humidity. Following pre-treatment of the DC2.4 cells (1-24 h) with escalating doses of the test molecules, the cells were washed, pulsed with 0.5 nM of the MHC class I H-2Kb peptide, SIINFEKL, for 1 h, and then co-cultured with the CD8+ T cell hybridoma, B3Z.
The level of B3Z cell activation and the effects of the various test molecules on B3Z activation were quantified in cell lysates using the β-gal chromogenic substrate, CPRG. The media was removed and 100 μL of 250 μM CPRG reconstituted in the lysis buffer (1×DPBS, 0.2% v/v saponin, 20 mM magnesium chloride) was added directly to each well. Cells were maintained at 37° C. prior to measurement. The absorbance at 560 nm (700 nm for background) was intermittently monitored using a BioTek Synergy HTX multimode microplate reader (Winooski, VT) to detect β-gal activity. CPRG lysis buffer and B3Z cells only served as the negative controls. All treatments were performed in triplicate and all experiments were repeated a minimum of three times.
Activation of B3Z T cell hybridoma cells was assessed following their exposure to various MHC class I H-2K^b positive cell lines presenting the SIINFEKL peptide. B3Z are a CD8+ SIINFEKL peptide specific T-cell hybridoma expressing a beta-galactosidase (β-gal) reporter gene driven by NF-AT elements on the interleukin 2 (IL-2) promoter. […] Activation of B3Z leads to production of β-gal whose presence can be quantified using the optimized detection assay described by Jendresen et al. (Jendresen, et al., An improved CPRG colorimetric ligand-receptor signal transduction assay based on beta-galactosidase activity in mammalian BWZ-reporter cells. J Pharmacol Toxicol Methods. 2018 March-April; 90:67-75).
To stimulate β-gal production in the B3Z, the H-2Kb murine cell lines, DC2.4, B16F10, and E.G7-OVA, or freshly isolated murine splenocytes, were plated at a density of 2.5 or 5×10^4 cells/well (100 μL/well in 96 well plates) and cultured overnight at 37° C. in an atmosphere containing 5% CO2 and 95% humidity. The cells were washed with DPBS and then treated for 1-24 h with the indicated concentrations of BzFβ suspended in complete media. Vehicle controls were always included. […]
To detect activation of the B3Z cells, the media was removed and 100 μL of 250 µM CPRG reconstituted in the lysis buffer (1×DPBS, 0.2% v/v saponin, 20 mM magnesium chloride) was added directly to each well. […] The absorbance at 560 nm (700 nm for background) was intermittently monitored using a BioTek Synergy HTX multimode microplate reader (Winooski, VT) to detect β-gal activity. […]

[7] = DC2.4 pulsed with SIINFEKL, data not shown
[8] = DC2.4 pulsed with […], data not shown

Cn1cnc(N)c2ncnc1-2 [3-methyladenine, 3-Methyladenine]
inhibition of BzFβ enhancement of B3Z activation [1, 7]: failed to inhibit

C[C@H]1CCC/C=C/[C@@H]2C[C@H](O)C[C@H]2[C@H](O)/C=C/C(=O)O1 [BFA, Brefeldin A]
effect of BFA on B3Z activation with OVA as antigen source ([1]; DC2.4, 3 μg/mL BFA 1 h pretreatment, 0.5 mg/mL OVA): significantly suppressed

CO/C1=C\C(C)=C\[C@@H](C)[C@@H](O)[C@@H](C)C/C(C)=C/C=C/[C@H](OC)[C@@H]([C@@H](C)[C@@H](O)[C@H](C)[C@@]2(O)C[C@@H](O)[C@H](C)[C@@H](C(C)C)O2)OC1=O [Bafilomycin A1]
inhibition of BzFβ enhancement of B3Z activation [1, 8]: failed to inhibit

CC(C)CC(NC(=O)CN)C(=O)O (stereo not drawn) [GL, Glycine-leucine dipeptide, reference compound]
MHCI/SIINFEKL complex staining versus untreated cells ([2]; 5 mM GL after 1 h pulse 30 nM SIINFEKL, p=0.0027): significantly reduced
concentration of dipeptides required relative to BzFβ ([2]; displace or enhance peptide binding): 3 fold
decay rate of SIINFEKL / stability of H-2Kb/SIINFEKL complex [3]: no increase in overall stability
MHC class I recovery after acid stripping [4]: no increase in MHC class I production
B3Z activation by B16F10, OVA ([5]; co-treatment with 1 mg/mL OVA, GL at 10 mM): no effect on the uptake or processing of OVA
B3Z activation by B16F10, SIINFEKL ([5]; pre-treatment, 1 h pulse 2 nM SIINFEKL, BzFβ 25, 50 μg, GL 10 mM): significantly enhance B3Z activation

CCN(CC)CCCC(C)Nc1ccnc2cc(Cl)ccc12 (stereo not drawn) [chloroquine, Chloroquine]
inhibition of BzFβ enhancement of B3Z activation [1]: failed to inhibit

C[C@@H]1C[C@@H]([C@H](O)CC2CC(=O)NC(=O)C2)C(=O)[C@@H](C)C1 [cycloheximide, Cycloheximide]
inhibition of BzFβ enhancement of B3Z activation [1, 8]: failed to inhibit

C=C1[C@@H](C)[C@H]2[C@H](Cc3ccccc3)NC(=O)[C@]23[C@H](OC(C)=O)/C=C/[C@@](C)(O)C(=O)[C@@H](C)C/C=C/[C@H]3[C@@H]1O [cytochalasin D, Cytochalasin D]
inhibition of BzFβ enhancement of B3Z activation [1, 8]: failed to inhibit

COc1cccc2c1C(=O)c1c(O)c3c(c(O)c1C2=O)C[C@@](O)(C(=O)CO)C[C@@H]3O[C@H]1C[C@H](N)[C@H](O)[C@H](C)O1 [doxorubicin, Doxorubicin]
inhibition of BzFβ enhancement of B3Z activation [1, 7]: failed to inhibit

O=C(O)C=Cc1ccc2c(c1)CCO2 [molecule #2, 3-(2,3-dihydro-1-benzofuran-5-yl)acrylic acid]
B3Z activation by analog-treated DC2.4 [6]: failed to evoke activation of the B3Z response

O=C(O)/C=C/c1ccc2c(c1)OCO2 [molecule #4, (2E)-3-(1,3-benzodioxol-5yl)acrylic acid]
B3Z activation by analog-treated DC2.4 [6]: failed to evoke activation of the B3Z response
